How the values were obtained:
[1] = tested on: NGF-induced neurite outgrowth, PC12 cells; assay: NGF-induced neurite outgrowth of PC12 cells; format: cell-based, rat; conditions: 25 μM compound, 5 ng/ml NGF, mean±SEM, n=8; no inhibition=100%, maximal inhibition=0%
Experimental: This assay was run as a further functional marker of NGF antagonism and takes advantage of the differentiation of PC12 cells (neurite outgrowth) induced by NGF. Cultures of PC12 cells were grown on Terasaki plates pre-coated with poly-D-lysine. Cells were exposed to NGF (1-50 (preferably 5) ng/ml) to induce neurite outgrowth as described elsewhere [L A Greene & A S Tischler, Establishment of a noradrenergic clonal line of rat adrenal pheochromocytoma cells which respond to nerve growth factor, Proc Natl Acad Sci USA. 1976 July; 73(7): 2424-2428]. In addition to NGF, cells were exposed to varying concentration of the compounds or vehicle. Following 4 days of exposure to NGF in the presence or absence of compound, neurite outgrowth was quantified. A neurite was scored if its caliber from origin to terminal was approximately the same and the length was equal to or greater than 1.5 the cell body diameter. The number of neurite bearing cells per total number of viable cells was calculated for each condition; the number of cells with neurites in the presence of NGF (without compound exposure) was considered to represent maximal (100%) outgrowth, to which the inhibitory effect of compounds of the invention on NGF-induced outgrowth was compared.

[2] = tested on: NGF-induced Erk 1/2 phosphorylation in PC12 cells; assay: Erk phosphorylation in NGF-stimulated PC12 cells (Western blot, ELISA); format: cell-based, rat; conditions: 1 ng/mL NGF, result in words
Experimental: This assay is useful for establishing that the compounds of the invention are functional NGF antagonists, not receptor agonists (an agonist could conceivably block NGF binding but actually activate the receptor). Erk 1/2 is a kinase activated down stream of TrkA and is a well studied member of the NGF-induced signal transduction cascade.
PC12 cells expressing TrkA and p75 were acutely exposed to 1 ng/mL NGF (15 min; 37° C.; 5% CO2) that was pre-incubated (30 min; room temperature) with or without the compounds. Cells were lysed in Laemmli sample buffer (for SDS-PAGE) or a lysis buffer containing Triton X-100 (for ELISA). Following SDS-PAGE, proteins were electroblotted onto nitrocellulose and immunoprobed for phosphorylated Erk 1 and 2. Blocking and primary antibody incubations of immunoblots were performed in Tris-buffered saline-Tween (10 mM Tris, pH 8.0, 150 mM NaCl, and 0.2% Tween 20) supplemented with 5% (w/v) bovine serum albumin (BSA); secondary antibody incubations were performed in 5% (w/v) dried skim milk powder. Immunoreactive bands were detected by chemiluminescence.
To detect phosphorylated Erk 1/2 by ELISA, a kit from R&D (Minneapolis, Minn.) Systems was used. […] The quantity of phosphoryated Erk 1/2 was quantified colorometrically with a standard HRP-streptavidin reaction.

Mice = assay: Writhing test (acetic acid abdominal contraction test); format: in vivo, mouse
Experimental: The acetic acid abdominal contraction test (Martinez et al., Pain 1999; 81: 179) was used to determine the efficacy of different compounds in a model of acute visceral chemical nociception. […] Compound or vehicle was administered (i.p. or s.c.) 15-45 minutes prior to the acetic acid injection. Each episode of writhing is characterized by a lengthwise stretching of the torso with a concomitant arching of the back.
Statistical analysis was performed using Prism™ 4.01 software package (GraphPad, San Diego, Calif., USA). The difference in response levels between treatment groups and control vehicle group was analyzed using an ANOVA followed by Bonferroni's method for post-hoc pair-wise comparisons. A p value <0.05 was considered to be significant
Animals were treated with vehicle (VEH) or Compound 5 (100 mg/kg i.p.; CMP) 10-20 minutes before the intraperitoneal injection of acetic acid, as described above.

O=C(O)c1ccc(Cl)c(N2C(=O)c3cccc4cc([N+](=O)[O-])cc(c34)C2=O)c1 [Compound 5, 4-Chloro-3-(5-nitro-1,3-dioxo-1H,3H-benzo[de]isoquinolin-2-yl)-benzoic acid]
NGF-induced neurite outgrowth, % of NGF-only control [1]: 65%±17%
NGF-induced Erk 1/2 phosphorylation, ELISA [2]: inhibits NGF-induced Erk 1/2 phosphorylation
NGF-induced Erk 1/2 phosphorylation, Western blot [2]: inhibits NGF-induced Erk 1/2 phosphorylation
chemically-induced abdominal contractions (number in 30 minutes) (Mice; 100 mg/kg i.p. 10-20 min before acetic acid, vehicle 58±3, n=6): 14±6
antinociceptive effect in the Writhing Test (Mice; 100 mg/kg i.p., result in words, p<0.001 vs vehicle, 100 mg/kg): significant antinociceptive effects

Source: patent US20070123514A1, “Methods of modulating neurotrophin-mediated activity” (PainCeptor Pharma Corporation, priority 2005, published 2007)
